Data reported in patent publication US9920074B2 (ACEA BIOSCIENCES INC., priority 2013, dated 2018).
Entries after “also recorded” stand apart in the source; their conditions may differ. Like-named read-outs stand apart in the source and are kept apart here.

Tests used:
[1] = biological target: T1, Jak3 phosphorylation in NK-92 cells (Homo sapiens, UniProt P52333); test: Western blotting assay for Jak3; format: cell-based; details: 1 hour, IL-2 stimulation, read-out: Jak3 inhibition
T1 construct: endogenous in cells; host or cells: NK-92 cells (ATCC)
T1 sequence (P52333 1-1124): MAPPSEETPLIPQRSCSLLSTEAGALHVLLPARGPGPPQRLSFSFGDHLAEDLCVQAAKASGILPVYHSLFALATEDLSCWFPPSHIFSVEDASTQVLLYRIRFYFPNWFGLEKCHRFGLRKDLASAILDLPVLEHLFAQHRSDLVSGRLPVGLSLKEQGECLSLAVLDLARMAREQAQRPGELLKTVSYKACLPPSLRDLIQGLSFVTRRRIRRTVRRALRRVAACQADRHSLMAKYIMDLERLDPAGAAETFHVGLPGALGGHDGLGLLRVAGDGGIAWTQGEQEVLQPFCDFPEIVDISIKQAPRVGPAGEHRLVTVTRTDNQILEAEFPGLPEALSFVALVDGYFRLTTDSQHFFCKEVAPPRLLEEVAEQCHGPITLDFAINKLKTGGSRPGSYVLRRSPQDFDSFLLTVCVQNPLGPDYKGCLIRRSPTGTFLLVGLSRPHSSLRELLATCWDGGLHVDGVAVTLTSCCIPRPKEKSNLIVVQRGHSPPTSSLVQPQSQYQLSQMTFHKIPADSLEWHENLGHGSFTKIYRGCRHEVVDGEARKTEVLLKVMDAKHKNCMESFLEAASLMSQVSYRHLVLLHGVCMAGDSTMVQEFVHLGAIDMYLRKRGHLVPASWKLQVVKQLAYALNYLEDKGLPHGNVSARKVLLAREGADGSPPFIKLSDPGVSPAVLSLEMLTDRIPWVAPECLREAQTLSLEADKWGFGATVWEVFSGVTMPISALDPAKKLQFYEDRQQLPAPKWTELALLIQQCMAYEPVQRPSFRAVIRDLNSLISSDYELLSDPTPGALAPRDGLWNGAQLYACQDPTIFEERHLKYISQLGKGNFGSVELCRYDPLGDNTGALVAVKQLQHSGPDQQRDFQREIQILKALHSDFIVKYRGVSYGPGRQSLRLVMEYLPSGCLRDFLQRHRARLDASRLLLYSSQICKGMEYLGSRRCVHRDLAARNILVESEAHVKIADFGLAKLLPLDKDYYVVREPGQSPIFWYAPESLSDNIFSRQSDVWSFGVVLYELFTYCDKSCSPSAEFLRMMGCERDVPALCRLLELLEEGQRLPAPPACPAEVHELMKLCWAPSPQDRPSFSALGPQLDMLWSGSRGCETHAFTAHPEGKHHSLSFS
Protocol: All cell lines were obtained from the American Type Culture Collection and were maintained at 37° C. with 5% CO2. Ramos cell line was maintained in media supplemented with 10% fetal bovine serum, penicillin (100 units/mL) and streptomycin (100 μg/mL). NK-92 cell line was maintained in media supplemented with 10% fetal bovine serum and 10% horse serum, penicillin (100 units/mL) and streptomycin (100 μg/mL), IL-2 10 ng/mL. Goat F(ab′)2 Anti-Human IgM-UNLB was obtained from SouthernBiotech. IL-2 was obtained from Peprotech.
NK-92 cells were treated with compounds at the dosed indicated for 1 hour in incubator, followed by the IL-2 stimulation for 15 minutes. Cells were then collected and lysed to prepare the cellular extraction. Western blots were performed on cell lysate using Phospho-Jak3, Jak3, Phospho-Stat5, Stat5 antibodies (Cell Signaling Technology). The intensity of blotting band was acquired using Image Lab (Bio-Rad) software, and the IC50 of target was generated with GraphPad Prism.

[2] = biological target: T2, Btk (Tyr223) phosphorylation in Ramos cells (Homo sapiens, UniProt Q06187); test: Btk Tyr223 phosphorylation inhibition, western blotting assay (Example 72); format: cell-based
T2 construct: endogenous in cells; host or cells: Ramos cells (ATCC)
Protocol: Ramos cell line was obtained from the American Type Culture Collection and was maintained at 37° C. with 5% CO2, in media supplemented with 10% fetal bovine serum, penicillin (100 units/mL) and streptomycin (100 μg/mL), Goat F(ab′)2 Anti-Human IgM-UNLB was obtained from SouthernBiotech.
Ramos cells were treated with compounds at indicated doses for 45 min at room temperature, followed by stimulation of 12 μg/mL of IgM for 30 min, and then lysed. Western blots were performed on the cell lysate using Phospho-Btk (Tyr223), Phospho-Btk (Tyr551), Btk, Phospho-PLCγ2 (Tyr1217), PLCγ2, Phospho-p44/42 MAPK (Erk1/2) (Thr202/Tyr204) and p44/42 MAPK (Erk1/2) antibodies (Cell Signaling Technology). The density of blotting band was acquired using ImageJ software, and the IC50 of Btk (Tyr223) phosphorylation was fitted using a non-linear regression model by GraphPad Prism version 4.0.

T2 sequence (Q06187 whole entry): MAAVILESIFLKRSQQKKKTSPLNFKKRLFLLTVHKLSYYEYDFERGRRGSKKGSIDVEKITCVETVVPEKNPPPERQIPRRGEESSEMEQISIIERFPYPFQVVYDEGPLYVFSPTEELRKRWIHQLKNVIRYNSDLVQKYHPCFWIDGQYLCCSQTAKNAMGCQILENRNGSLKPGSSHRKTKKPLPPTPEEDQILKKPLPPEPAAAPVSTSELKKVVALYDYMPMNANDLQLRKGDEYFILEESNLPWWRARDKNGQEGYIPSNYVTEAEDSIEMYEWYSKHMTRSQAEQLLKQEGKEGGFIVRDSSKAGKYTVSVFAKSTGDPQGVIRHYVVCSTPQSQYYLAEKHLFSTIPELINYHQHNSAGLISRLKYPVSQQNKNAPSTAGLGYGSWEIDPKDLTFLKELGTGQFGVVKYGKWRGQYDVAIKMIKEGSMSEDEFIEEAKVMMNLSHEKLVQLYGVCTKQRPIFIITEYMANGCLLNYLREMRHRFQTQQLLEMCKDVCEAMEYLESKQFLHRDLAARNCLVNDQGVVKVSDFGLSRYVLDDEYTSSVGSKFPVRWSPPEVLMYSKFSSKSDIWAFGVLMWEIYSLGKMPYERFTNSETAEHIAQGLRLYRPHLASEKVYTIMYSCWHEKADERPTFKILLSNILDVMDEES

IC50 [1]: ≤ 200 nM | IC50 ([2]; Btk Tyr223 phosphorylation, 45 min, 12 μg/mL IgM, read-out: BTK Inhibition): < 10 nM | IC50 ([2]; treated 45 mins, read-out: inhibition IC50 of the phosphorylation of BTK protein): 1.1 nM
Structure (SMILES): C=CC(=O)Nc1cccc(Oc2nc(Nc3ccc(N4CCN(C)CC4)cc3)ncc2OC)c1 [Compound I-1, N-(3-(5-methoxy-2-(4-(4-methylpiperazin-1-yl)phenylamino)pyrimidin-4-yloxy)phenyl)acrylamide]
reduction of the Btk Tyr223 phosphorylation in Ramos cells ([2]; western blot): reduction of the Btk Tyr223 phosphorylation; also recorded: dose-dependent inhibition of the BTK phosphorylation
